Assay results from US8338490B2, “Composition for repelling and deterring vermin” (Novartis AG, priority 2006, dated 2012).

How the values were obtained:
[1] = system: Rhipicephalus sanguineus (nymphs); assay: Arena test in vitro against Rhipicephalus sanguineus (nymphs); settings: ca. 40 to 50, video evaluation
Protocol: This method is carried out in titre plates having 6 wells with a cross-section of 5 cm each, using a computer-supported video system. Each well of the titre plate is lined with a circular filter paper or another suitable carrier material. The substance of formula I to be tested is dissolved in methanol, acetonitrile or another suitable solvent, with ultrasound treatment and heating being employed for poorly-soluble substances. In an amount of 1 to 100 μg/cm^2, the dissolved test substance is placed in the centre of the filter paper on a quadrant or circular area of ca. 2.4 cm^2 radius. 4 of the 6 wells are filled with different test substances or with the same test substance in different dilutions (e.g. 1, 3.2, 5, 10 and 20 μg/cm^2). The 5th well is treated with DEET (N,N-diethyl-m-toluamide) as standard substance. The 6th well is filled with the pure solvent and serves as a control. 60 to 100 larvae or 25 to 50 nymphs or 10 to 25 adults of the parasite to be tested, e.g. ticks, are added to each filter paper, and the system is covered with a pane of glass and positioned under a video camera. At intervals of 5 seconds, the video camera takes individual pictures of all 6 wells. For a qualitative evaluation, these images are observed in a time-lapse as a continuous film, optically following the movements of the parasites on the filter paper and comparing them with the movements in the control well no. 6 or with the standard in the 5th well. A qualitative observation is thus made as to whether the test parasites move evenly over the whole surface of the filter paper and ignore the test substance, or whether and over what period they avoid the treated zone, and what influence the dilution of the test substance has on the behaviour of the test parasites. In this way, neutral and deterring substances are determined. At the same time, the duration of activity of the test substance is determined and compared with that of the standard. By plotting all the images for each individual well over one another, different areas of density are obtained. This represents the frequency at which the parasites visit certain places. This frequency is evaluated statistically and thus quantitatively by the Willcoxon method in a comparison with the control and with the standard. […] Arena Test In Vitro Against Rhipicephalus sanguineus (nymphs) A test is carried out analogously to example B using ca. 40 to 50 nymphs. […] In particular, the compounds are notable for their almost complete deterring action, which lasts considerably longer than that of DEET. Particularly marked long-term activity is shown for example by compounds Nos. 1.001, 2.001, 3.001, 4.001, 5.001, 5.184, 5.185, and 5.186 even up to a dilution of 10 μg/cm^2.

[2] = system: Amblyomma hebraeum or variegatum (nymphs); assay: Arena test in vitro against Amblyomma hebraeum or variegatum (nymphs); settings: ca. 25 to 50 per well, video evaluation
Protocol: This method is carried out in titre plates having 6 wells with a cross-section of 5 cm each, using a computer-supported video system. Each well of the titre plate is lined with a circular filter paper or another suitable carrier material. The substance of formula I to be tested is dissolved in methanol, acetonitrile or another suitable solvent, with ultrasound treatment and heating being employed for poorly-soluble substances. In an amount of 1 to 100 μg/cm^2, the dissolved test substance is placed in the centre of the filter paper on a quadrant or circular area of ca. 2.4 cm^2 radius. 4 of the 6 wells are filled with different test substances or with the same test substance in different dilutions (e.g. 1, 3.2, 5, 10 and 20 μg/cm^2). The 5th well is treated with DEET (N,N-diethyl-m-toluamide) as standard substance. The 6th well is filled with the pure solvent and serves as a control. 60 to 100 larvae or 25 to 50 nymphs or 10 to 25 adults of the parasite to be tested, e.g. ticks, are added to each filter paper, and the system is covered with a pane of glass and positioned under a video camera. At intervals of 5 seconds, the video camera takes individual pictures of all 6 wells. For a qualitative evaluation, these images are observed in a time-lapse as a continuous film, optically following the movements of the parasites on the filter paper and comparing them with the movements in the control well no. 6 or with the standard in the 5th well. A qualitative observation is thus made as to whether the test parasites move evenly over the whole surface of the filter paper and ignore the test substance, or whether and over what period they avoid the treated zone, and what influence the dilution of the test substance has on the behaviour of the test parasites. In this way, neutral and deterring substances are determined. At the same time, the duration of activity of the test substance is determined and compared with that of the standard. By plotting all the images for each individual well over one another, different areas of density are obtained. This represents the frequency at which the parasites visit certain places. This frequency is evaluated statistically and thus quantitatively by the Willcoxon method in a comparison with the control and with the standard. […] Arena Test In Vitro Against Amblyomma hebraeum or variegatum (nymphs) The test is carried out as described above, with ca. 25 to 50 nymphs being added per well. 10 mg of dissolved test substance is applied to an area of 2.4 cm^2 radius. […] Particularly marked long-term activity is shown for example by using the compounds Nos. 1.001, 2.001, 3.001, 4.001, 5.001, 5.184, 5.185, and 5.186 even up to a dilution of 3.2 μg/cm^2.

[3] = system: Boophilus microplus Biarra (larvae); assay: Arena test in vitro against Boophilus microplus Biarra (larvae); settings: ca. 60 to 100 per well, video evaluation
Protocol: This method is carried out in titre plates having 6 wells with a cross-section of 5 cm each, using a computer-supported video system. Each well of the titre plate is lined with a circular filter paper or another suitable carrier material. The substance of formula I to be tested is dissolved in methanol, acetonitrile or another suitable solvent, with ultrasound treatment and heating being employed for poorly-soluble substances. In an amount of 1 to 100 μg/cm^2, the dissolved test substance is placed in the centre of the filter paper on a quadrant or circular area of ca. 2.4 cm^2 radius. 4 of the 6 wells are filled with different test substances or with the same test substance in different dilutions (e.g. 1, 3.2, 5, 10 and 20 μg/cm^2). The 5th well is treated with DEET (N,N-diethyl-m-toluamide) as standard substance. The 6th well is filled with the pure solvent and serves as a control. 60 to 100 larvae or 25 to 50 nymphs or 10 to 25 adults of the parasite to be tested, e.g. ticks, are added to each filter paper, and the system is covered with a pane of glass and positioned under a video camera. At intervals of 5 seconds, the video camera takes individual pictures of all 6 wells. For a qualitative evaluation, these images are observed in a time-lapse as a continuous film, optically following the movements of the parasites on the filter paper and comparing them with the movements in the control well no. 6 or with the standard in the 5th well. A qualitative observation is thus made as to whether the test parasites move evenly over the whole surface of the filter paper and ignore the test substance, or whether and over what period they avoid the treated zone, and what influence the dilution of the test substance has on the behaviour of the test parasites. In this way, neutral and deterring substances are determined. At the same time, the duration of activity of the test substance is determined and compared with that of the standard. By plotting all the images for each individual well over one another, different areas of density are obtained. This represents the frequency at which the parasites visit certain places. This frequency is evaluated statistically and thus quantitatively by the Willcoxon method in a comparison with the control and with the standard. […] Arena Test In Vitro Against Boophilus microplus Biarra (larvae) The test is carried out as described above, with ca. 60 to 100 larvae being added per well. 10 mg of dissolved test substance is applied to an area of 2.4 cm^2 radius. […] Particularly marked long-term activity is shown for example by using the compounds Nos. 1.001, 2.001, 3.001, 4.001, 5.001, 5.184, 5.185, and 5.186 even up to a dilution of 10 μg/cm^2.

[4] = system: various parasites, e.g. ticks; assay: Arena test: general method for testing vermin-deterring substances; settings: 1 to 100 μg/cm^2 on filter paper, video evaluation
Protocol: Arena Test: General Method for Testing Vermin-Deterring Substances
This method is carried out in titre plates having 6 wells with a cross-section of 5 cm each, using a computer-supported video system. Each well of the titre plate is lined with a circular filter paper or another suitable carrier material. The substance of formula I to be tested is dissolved in methanol, acetonitrile or another suitable solvent, with ultrasound treatment and heating being employed for poorly-soluble substances. In an amount of 1 to 100 μg/cm^2, the dissolved test substance is placed in the centre of the filter paper on a quadrant or circular area of ca. 2.4 cm^2 radius. 4 of the 6 wells are filled with different test substances or with the same test substance in different dilutions (e.g. 1, 3.2, 5, 10 and 20 μg/cm^2). The 5th well is treated with DEET (N,N-diethyl-m-toluamide) as standard substance. The 6th well is filled with the pure solvent and serves as a control. 60 to 100 larvae or 25 to 50 nymphs or 10 to 25 adults of the parasite to be tested, e.g. ticks, are added to each filter paper, and the system is covered with a pane of glass and positioned under a video camera.
At intervals of 5 seconds, the video camera takes individual pictures of all 6 wells. For a qualitative evaluation, these images are observed in a time-lapse as a continuous film, optically following the movements of the parasites on the filter paper and comparing them with the movements in the control well no. 6 or with the standard in the 5th well. A qualitative observation is thus made as to whether the test parasites move evenly over the whole surface of the filter paper and ignore the test substance, or whether and over what period they avoid the treated zone, and what influence the dilution of the test substance has on the behaviour of the test parasites. In this way, neutral and deterring substances are determined. At the same time, the duration of activity of the test substance is determined and compared with that of the standard. By plotting all the images for each individual well over one another, different areas of density are obtained. This represents the frequency at which the parasites visit certain places. This frequency is evaluated statistically and thus quantitatively by the Willcoxon method in a comparison with the control and with the standard.

Compound	dilution up to which particularly marked long-term activity is shown [1]	dilution up to which particularly marked long-term activity is shown [2]	dilution up to which particularly marked long-term activity is shown [3]	vermin-deterring activity in the arena test [4]
OCC1CCCCN1Cc1ccccc1 (stereo not drawn) [Compound 1.001]	10 μg/cm^2	3.2 μg/cm^2	10 μg/cm^2	excellent activity
OCC1CCCN1Cc1ccccc1 (stereo not drawn) [Compound 2.001]	10 μg/cm^2	3.2 μg/cm^2	10 μg/cm^2	excellent activity
OC1CCN(Cc2ccccc2)C1 (stereo not drawn) [Compound 3.001, 1-Benzyl-pyrrolidin-3-ol]	10 μg/cm^2	3.2 μg/cm^2	10 μg/cm^2	excellent activity
OC1CCCN(Cc2ccccc2)C1 (stereo not drawn) [Compound 4.001]	10 μg/cm^2	3.2 μg/cm^2	10 μg/cm^2	excellent activity
OCCN(Cc1ccccc1)Cc1ccccc1 [Compound 5.001]	10 μg/cm^2	3.2 μg/cm^2	10 μg/cm^2	excellent activity
CC(CO)N(Cc1ccccc1)Cc1ccccc1 (stereo not drawn) [Compound 5.184]	10 μg/cm^2	3.2 μg/cm^2	10 μg/cm^2	excellent activity
